Consider 18 molecules from patent publication US4775662A, “Leukotriene antagonists” (SmithKline Beckman Corporation, priority 1987, dated 1988).

Counter-ions that a name gives are not always drawn.

Test [1] addresses T1, leukotriene D4 (LTD4) induced contraction of guinea pig tracheal tissues (Cavia porcellus, UniProt Q2NNR5).
T1 construct: Guinea pig (adult male albino Hartley strain) tracheal spiral strips; from tissue; host or cells: guinea pig trachea (spiral strips, adult male albino Hartley strain)
T1 sequence (Q2NNR5 1-340): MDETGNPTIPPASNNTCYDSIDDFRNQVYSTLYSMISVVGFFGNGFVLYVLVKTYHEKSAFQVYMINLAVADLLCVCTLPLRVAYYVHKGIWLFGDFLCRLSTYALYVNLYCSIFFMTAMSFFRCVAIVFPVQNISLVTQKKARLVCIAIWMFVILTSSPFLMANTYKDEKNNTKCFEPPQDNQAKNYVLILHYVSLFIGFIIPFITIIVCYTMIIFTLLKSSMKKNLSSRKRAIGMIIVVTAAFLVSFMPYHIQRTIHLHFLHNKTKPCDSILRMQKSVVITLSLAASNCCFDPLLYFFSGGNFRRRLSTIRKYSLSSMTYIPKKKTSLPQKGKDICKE
As to the kind of experiment: In vitro inhibition of LTD4-induced contraction of guinea pig tracheal spiral strips (pA2). Type of test: cell-based, guinea pig (adult male albino Hartley strain). As to conditions: for Kb: In vitro, LTD4, guinea pig trachea, EC30 relative to carbachol, 30 min pretreatment. As for the experimental part:
(§1) The leukotriene antagonist activity of the compounds of this invention is measured by the ability of the compound to inhibit leukotriene induced contraction of guinea pig tracheal tissues in vitro and to inhibit leukotriene induced bronchoconstriction in guinea pigs in vivo. The following methodologies were employed:
In vitro: Guinea pig (adult male albino Hartley strain) tracheal spiral strips of approximate dimensions 2 to 3 mm cross-sectional width and 3.5 cm length were bathed in modified Krebs buffer in jacketed 10 ml tissue bath and continously aerated with 95% O2 /5% CO2. The tissues were connected via silk suture to force displacement transducers for recording isometric tension. The tissues were equilibrated for 1 hr., pretreated for 15 minutes with meclofenamic acid (1 μM) to remove intrinsic prostaglandin responses, and then pretreated for an additional 30 minutes with either the test compound or vehicle control. A cumulative concentration-response curve for LTD4 on triplicate tissues was generated by successive increases in the bath concentration of the LTD4. In order to minimize intertissue variability, the contractions elicited by LTD4 were standardized as a percentage of the maximum response obtained to a reference agonist, carbachol (10 μM).
(§2) Calculations: The averages of the triplicate LTD4 concentration-response curves both in the presence and absence of the test compound were plotted on log graph paper. The concentration of LTD4 needed to elicit 30% of the contraction elicited by carbachol was measured and defined as the EC30. The pA2 value for the test compound was determined by the following equations: [formula] In vivo: Anesthetized, spontaneously breathing guinea pigs (Adult male albino Hartley strain) were monitored on a Buxco pulmonary mechanics computer. Changes in airway resistance (RL) were calculated by the computer on a breath-by-breath basis at isovolumic points from signals measuring airflow and transpulmonary pressure using differential pressure transducers. Animals received either test compound or vehicle control intravenously via the jugular vein. LTD4 was then injected into the jugular vein. The bronchoconstriction produced was reflected by % changes in airways resistance relative to the baseline values obtained prior to injection of the test compound or vehicle control. Each guinea pig received either vehicle control or test compound.

Test [2] relates to leukotriene (LTD4) induced bronchoconstriction in guinea pigs. Kind of test: In vivo inhibition of LTD4-induced bronchoconstriction in anesthetized, spontaneously breathing guinea pigs (airway resistance, RL). Set-up: species or system guinea pig (adult male albino Hartley strain). The note with it: Cavia porcellus, intravenous, LTD4 challenge, guinea pig, read-out: RL (average % inhibition of change in airway resistance). The method, then:
as §1, §2
Calculations: The average of 3-6 animals per treatment was calculated using the % changes in the pulmonary parameters for control and test compound-treated animals. The average % inhibition by the test compound was calculated from the following equation: [formula]

In the case of `CCCCCCCCCCCC/C=C\[C@H](SCCC(=O)O)[C@H](O)CCC(=O)O` (relative stereo) [Example 2, 4-hydroxy-5-[(2-carboxyethyl)thio]-6(Z)-nonadecenoic acid], the Kb in test [1] is 0.631 µM. Also, in test [2], the inhibition in vivo at 5 mg/kg amounted to 91%.

`CCCCCCCCCCCC/C=C\[C@H](SCCC(=O)NCC(=O)O)[C@H](O)CCC(=O)O` (relative stereo) [Example 3, 5-[(3-carboxymethylamino-3-oxopropyl)thio]-4-hydroxy-6(Z)-nonadecenoic acid]: the Kb in test [1] is 0.631 µM. Moreover, in test [2], the inhibition in vivo at 5 mg/kg worked out at 36%.

For the molecule `CCCCCCCCCCCC/C=C\[C@H](SCCC(=O)N(C)CC(=O)O)[C@H](O)CCC(=O)O` (relative stereo) [Example 4, 5-[(3-carboxymethyl-N-methylamino-3-oxopropyl)thio]-4-hydroxy-6(Z)-nonadecenoic acid], the inhibition in vivo at 5 mg/kg in test [2] came to 90%.

Turning to `CCCCCCCCCCCC/C=C\[C@H](SCC(=O)O)[C@H](O)CCC(=O)O` (relative stereo) [Example 5, 5-[(carboxymethyl)thio]-4-hydroxy-6(Z)-nonadecenoic acid], the Kb in test [1] is 1.26 µM.

As for `CCCCCCCCCCCC/C=C\[C@H](SCCCC(=O)O)[C@H](O)CCC(=O)O` (relative stereo) [Example 6, 5-[(3-carboxypropyl)thio]-4-hydroxy-6(Z)-nonadecenoic acid], the Kb in test [1] is 0.631 µM. Also, the inhibition in vivo at 5 mg/kg in test [2] was 88%.

As to `CCCCCCCCCCCC/C=C\[C@H](SCCC(N)=O)[C@H](O)CCC(=O)O` (relative stereo) [Example 7, 5-[[2-(aminocarbonyl)ethyl]thio]-4-hydroxy-6(Z)-nonadecenoicacid], the Kb in test [1] is 7.94 µM. Further, the inhibition in vivo at 5 mg/kg in test [2] stood at 38%.

As to `CCCCCCCCCCCC/C=C\[C@H](SCCC(=O)O)[C@H](O)CCC(N)=O` (relative stereo) [Example 12, 5-[(2-carboxyethyl)thio]-4-hydroxy-6(Z)-nonadecenamide], the Kb in test [1] is 3.98 µM.

With `CCCCCCCCCC/C=C\[C@H](SCCC(=O)O)[C@H](O)CCC(=O)O` (relative stereo) [Example 14, 4-hydroxy-5-[(2-carboxyethyl)thio]-6(Z)-heptadecenoic acid], in test [1], the Kb is 5.01 µM.

On to `CCCCCCCCCCCCCC/C=C\[C@H](SCCC(=O)O)[C@H](O)CCC(=O)O` (relative stereo) [Example 15, 4-hydroxy-5-[(2-carboxyethyl)thio]-6(Z)-heneicosenoic acid], for which the Kb in test [1] was 7.94 µM.

Consider `CCCCCCCCCCCC/C=C\[C@H](SCC(N)C(=O)NCC(=O)O)[C@H](O)CCC(=O)O` (single isomer, unassigned; isomer 4) [Example 1(i) 4(R),5(S) isomer, hydrate], for which, in test [1], the Kb is 6.31 µM. In addition, in test [2], the inhibition in vivo at 5 mg/kg is 96%.

As to `CCCCCCCCCCCC/C=C\[C@@H](SCC(N)C(=O)NCC(=O)O)[C@@H](O)CCC(=O)O` (single isomer, unassigned; isomer 5) [Example 1(i) 4(S),5(R) isomer, 5-[(2-amino-3-carboxymethylamino-3-oxopropyl)thio]-4-hydroxy-6(Z)-nonadecenoic acid], the Kb in test [1] is 10 µM. Also, the “partial agonist (footnote to pA2)” value in test [1] (footnote (c) to pA2 5.0) was “partial agonist”.

On to `CCCCCCCCCCCC/C=C\[C@H](SCC(N)C(=O)O)[C@H](O)CCC(=O)O` (stereo partly drawn) [Example 8(c), 4(R)-Hydroxy-5(S)-[(2-amino-2-carboxyethyl)thio]-6(Z)-nonadecenoic acid, sodium salt], for which the Kb in test [1] was 7.94 µM.

In the case of `CCCCCCCCCCCC/C=C\[C@@H](SCC(N)C(=O)O)[C@@H](O)CCC(=O)O` (stereo partly drawn) [Example 8(d), 4(S)-Hydroxy-5(R)-[(2-amino-2-carboxyethyl)thio]-6(Z)-nonadecenoic acid, sodium salt], the Kb in test [1] was 7.94 µM.

In the case of `CCCCCCCCCCCC/C=C\[C@H](SCC(N)C(=O)NCC(N)=O)[C@H](O)CCC(=O)O` (some centres unmarked) [Example 9], in test [1], the Kb is 3.16 µM. The inhibition in vivo at 5 mg/kg in test [2] amounted to 98%.

Consider `CCCCCCCCCCCC/C=C\C(SCCC(=O)O)C(O)CC(=O)O` (centres unmarked) [Example 10, 3-hydroxy-4-[(2-carboxyethyl)thio]-5(Z)-octadecenoic acid], for which the inhibition in vivo at 10 mg/kg in test [2] turned out to be 88%.

Take `CCCCCCCCCCCC/C=C\C(CCCC(=O)O)SCCC(=O)O` (centres unmarked) [Example 11, 5-[(2-carboxyethyl)thio]-6(Z)-non-adecenoic acid]: the Kb in test [1] was 3.16 µM. Besides, the inhibition in vivo at 10 mg/kg in test [2] was found to be 98%.

With `CCCCCCCCCCCC/C=C\C(SCC(N)C(=O)NCC(=O)O)C(O)CCC(N)=O` (centres unmarked) [Example 13], the Kb in test [1] is 12.6 µM.

On to `CCCCCCCCCCCC/C=C\C(CCC(=O)O)SCCC(=O)O` (centres unmarked) [Example 16, 4-[(2-carboxyethyl)thio]-5(Z)-octadecenoic acid], for which the Kb in test [1] is 0.251 µM.
